Data reported in patent publication US11560365B2, “Non-fluorescent rhodamines” (THE UNIVERSITY OF TOKYO, priority 2018, dated 2023).
Blank lines part the entries; values can stand above or below the compound they belong to.

What was measured:
[1] = Optical properties: relative fluorescence quantum yield with reference to Rhodamine B; type: physicochemical; conditions: for fluorescence quantum yield (Φfl): relative to Rhodamine B
Procedure: The optical properties of the compound synthesized in the above Synthesis Examples were evaluated. The results are illustrated in FIG. 4.
(§1) (a to c) of FIG. 4 illustrate chemical structures of tetramethylrhodamine (TMR) (a), 4-Cl TMR (b) and 4,5-diCl TMR (c), the fluorescence quantum yields (Φf1) in MeOH containing 0.1% TFA, absorption maximum (λabs) and emission maximum (λem). Φf1 is a relative fluorescence quantum yield determined with reference to Rhodamine B (Φf1=0.65) of EtOH.
(d to f) of FIG. 4 illustrates absorption spectra and emission spectra of 1 μM TMR (d), 4-Cl TMR (e) and 4,5-diCl TMR (f) in MeOH containing 0.1% TFA and 0.1% DMSO.
as §1, with “6” for “4”, “2-Cl TMR” for “tetramethylrhodamine (TMR)”, “2-Me” for “4-Cl”, “2-F” for “4,5-diCl”, “(Oni)” for “(Φf1)”
(d to f) of FIG. 6 illustrates the absorption spectra and the emission spectra of 1 μM 2-Cl TMR (a), 2-Me TMR (b) and 2-F TMR (c) in MeOH containing 0.1% TFA and 0.1% DMSO.
(a) of FIG. 7 illustrates Φf1, λabs and λem of 2-Cl triMe rhodamine in MeOH containing 0.1% TFA. (b) of FIG. 7 illustrates the absorption spectrum and the emission spectrum of 1 μM 2-Cl triMe rhodamine in MeOH containing 0.1% TFA.

[2] = Solvent viscosity dependence of the fluorescence quantum yield; type: physicochemical
Procedure: Next, in order to examine whether the non-fluorescence of the newly developed non-fluorescent rhodamine was due to the production of the TICT state, solvent viscosity dependence of the fluorescence quantum yield was examined. Specifically, the absorption, fluorescence spectrum and fluorescence quantum yield were measured in three types of solvents including MeOH (εr=32.6, η=0.61 cP), ethylene glycol (εr=38.7, η=19.9 cP) and glycerol (εr=42.5, η=1412 cP). […] It was expected that if the formation of the TICT state was promoted by the steric hindrance due to the introduction of the substituent, while quenching was performed by the formation of the TICT state in MeOH, in a highly viscous solvent such as glycerol, a rate of intramolecular twist became slow, and the transition to the TICT state was suppressed, so that the fluorescence quantum yield would increase.
(a) of FIG. 5 is Φf1 of 4-Cl TMR in glycerol, ethylene glycol and MeOH. Φf1 is a relative fluorescence quantum yield determined with reference to Rhodamine B (Φf1=0.65) of EtOH. (b and c) of FIG. 5 illustrate the absorption spectrum (b) and the emission spectrum (c) of 1 μM 4-Cl TMR in glycerol, ethylene glycol and MeOH.

CYP1A2 = molecular target: T1, CYP1A2 (Homo sapiens, UniProt P05177); conditions: literature (Stresser et al. 2002); cited from earlier work
T1 sequence (P05177 1-516): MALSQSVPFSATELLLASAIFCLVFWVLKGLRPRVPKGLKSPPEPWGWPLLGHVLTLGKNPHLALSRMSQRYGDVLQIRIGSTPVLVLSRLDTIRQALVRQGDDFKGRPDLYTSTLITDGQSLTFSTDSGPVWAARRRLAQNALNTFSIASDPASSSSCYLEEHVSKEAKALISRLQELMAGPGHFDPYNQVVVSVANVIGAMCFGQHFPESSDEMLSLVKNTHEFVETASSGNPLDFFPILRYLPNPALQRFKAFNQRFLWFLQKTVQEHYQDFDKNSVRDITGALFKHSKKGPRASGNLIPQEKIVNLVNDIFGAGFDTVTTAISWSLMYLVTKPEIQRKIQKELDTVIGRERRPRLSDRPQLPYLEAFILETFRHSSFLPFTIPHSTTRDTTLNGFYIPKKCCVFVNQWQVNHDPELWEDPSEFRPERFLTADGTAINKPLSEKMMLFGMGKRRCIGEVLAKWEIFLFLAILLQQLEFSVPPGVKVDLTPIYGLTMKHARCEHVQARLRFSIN

CYP3A = conditions: literature statement; cited from earlier work
CYP3A4 = CYP3A4 (Homo sapiens, UniProt P08684); assay: Absorption/fluorescence spectrum changes on reaction with CYP3A4; type: biochemical; conditions: 1 μM compound, CYP3A4 10 nM
CYP3A4, sequence (P08684 whole entry): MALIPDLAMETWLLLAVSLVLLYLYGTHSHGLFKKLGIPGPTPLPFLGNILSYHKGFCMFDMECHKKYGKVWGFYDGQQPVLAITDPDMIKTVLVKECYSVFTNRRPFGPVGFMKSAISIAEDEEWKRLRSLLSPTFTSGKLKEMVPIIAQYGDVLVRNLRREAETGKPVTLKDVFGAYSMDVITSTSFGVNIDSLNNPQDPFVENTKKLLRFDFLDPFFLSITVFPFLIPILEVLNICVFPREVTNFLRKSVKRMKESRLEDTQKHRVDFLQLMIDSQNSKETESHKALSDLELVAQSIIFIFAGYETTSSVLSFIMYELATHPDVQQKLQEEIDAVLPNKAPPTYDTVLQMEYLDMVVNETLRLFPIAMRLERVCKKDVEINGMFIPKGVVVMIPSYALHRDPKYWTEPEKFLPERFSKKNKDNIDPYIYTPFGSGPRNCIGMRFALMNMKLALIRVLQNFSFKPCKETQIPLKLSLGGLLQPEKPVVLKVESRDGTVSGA
Excerpt: Next, as a representative of the compounds illustrated in FIG. 15, absorption/fluorescence spectrum changes when Compound 29 (illustrated below) was reacted with CYP3A4 were shown (FIG. 16).

CYP3A activity of HepaRG = assay: Fluorescence imaging of CYP3A activity in living HepaRG cells; type: cell-based; conditions: 1 μM compound, 37° C. 30 minutes; control and rifampicin groups versus ketoconazole group
Procedure: HepaRG (registered trademark) frozen vial 8M (HPR116-8M) purchased from KAC Co., Ltd. was thawed and inoculated according to the manufacturer's protocol, and cultured for 6 days in an 8-well chamber (Matsunami: SCC-038 collagen coat). Then, it was examined whether Compound 29 could detect the CYP3A activity of HepaRG.
Imaging was performed on three types of control group, inhibitor-added group, and derivative-added group.
Ketoconazole was used as an inhibitor. Rifampicin was used as an inducer of the CYP3A activity. […]
Here, FIG. 18 illustrates a fluorescence image (control) of HepaRG obtained when HepaRG to which 0.1% DMSO was added for 3 days was pretreated with 0.1% DMSO for 30 minutes, then 1 μM of Compound 29 was added, and the mixture was incubated at 37° C. for 30 minutes, a fluorescence image (+ inhibitor) of HepaRG obtained when 0.1% DMSO was added for 3 days and pretreated with 1 μM ketoconazole for 30 minutes before imaging, then Compound 29 was added, and the mixture was incubated at 37° C. for 30 minutes, and a fluorescence image obtained when 20 μM rifampicin were added for 3 days and was pretreated with 0.1% DMSO for 30 minutes, then Compound 29 was added, and the mixture was further incubated at 37° C. for 30 minutes. […]

[3] = system: CYP3A in human liver microsomes; assay: Time-dependent fluorescence change with human liver microsomes and NADPH producing system
Procedure: The human liver microsomes and the NADPH producing system were pre-incubated with 0.1% DMSO or 10 μM ketoconazole for 30 minutes before addition of Compound 29, and the measurement was started immediately after addition of Compound 29.

[4] = in EtOH; cited from earlier work

fluorescence behaviour (in words) ([1]; MeOH containing 0.1% TFA): exhibited non-fluorescence
SMILES: CN(C)c1ccc2c(-c3ccccc3C(=O)O)c3cc(Cl)c(=[N+](C)C)cc-3oc2c1 [2-Cl TMR, 2-ClTMR]

fluorescence quantum yield ([1]; MeOH containing 0.1% TFA): 15%
SMILES: C/N=c1\cc2oc3cc(N(C)C)ccc3c(-c3ccccc3C(=O)O)c-2cc1Cl [2-Cl triMe rhodamine]

fluorescence quantum yield ([1]; MeOH containing 0.1% TFA): about 1%
SMILES: Cc1cc2c(-c3ccccc3C(=O)O)c3ccc(N(C)C)cc3oc-2cc1=[N+](C)C [2-Me TMR, 2-MeTMR]

fluorescence quantum yield (Φfl) ([2]; MeOH (η=0.61 cP)): 0.003
fluorescence quantum yield (Φfl) ([2]; ethylene glycol (η=19.9 cP)): 0.01
fluorescence quantum yield (Φfl) ([2]; glycerol (η=1412 cP)): 0.09
fluorescence quantum yield (Φfl) ([1]; MeOH containing 0.1% TFA): 0.003
SMILES: Cc1ccccc1-c1c2ccc(=[N+](C)C)c(Cl)c-2oc2cc(N(C)C)ccc12 [4-Cl TMR, 4-ClTMR]

change of absorption on reaction with CYP3A4 (CYP3A4; pH 7.4): Shortening the absorption wavelength
fluorescence change on reaction with human liver microsomes ([3]; pH 7.4): showed the increase in fluorescence
SMILES: CCCCCOCC/[N+](C)=c1/cc2oc3cc(N(C)C)ccc3c(-c3ccccc3C(=O)O)c-2cc1C [Compound 29]
change of fluorescence intensity on reaction with CYP3A4 (CYP3A4; pH 7.4, excitation 520 nm): significant increase in fluorescence intensity
detection of CYP3A activity in living cells by fluorescence (CYP3A activity of HepaRG): could detect the CYP3A activity even in living cells

fluorescence quantum yield (Φfl) ([1]; MeOH containing 0.1% TFA): 0.399
SMILES: Cc1ccccc1-c1c2ccc(=[N+](C)C)cc-2oc2cc(N(C)C)ccc12 [reference compound]

More lines, now with the values behind:

SMILES: CN(C)c1ccc2c(-c3ccccc3C(=O)O)c3cc(F)c(=[N+](C)C)cc-3oc2c1 [2-F TMR, 2-FTMR]
fluorescence quantum yield ([1]; MeOH containing 0.1% TFA): about 10%

SMILES: Cc1ccccc1-c1c2ccc(=[N+](C)C)c(Cl)c-2oc2c(Cl)c(N(C)C)ccc12 [4,5-diCl TMR, 4,5-diClTMR]
fluorescence quantum yield (Φfl) ([1]; MeOH containing 0.1% TFA): 0.001

SMILES: COc1cccc(OC)c1C1=C2C=CC(=[N+](C)C)C(Cl)=C2[Si](C)(C)c2c1ccc(N(C)C)c2Cl [4,5-diCl TMSiR]
fluorescence quantum yield ([1]; Si-rhodamines, Example 5): ≤ 0.1%

SMILES: Cc1ccccc1C1=C2C=CC(=[N+](C)C)C(Cl)=C2[Si](C)(C)c2cc(N(C)C)ccc21 [4-Cl TMSiR]
fluorescence quantum yield ([1]; Si-rhodamines, Example 5): 1%

SMILES: O=c1cc(C(F)(F)F)c2ccc(OCc3ccccc3)cc2o1 [BFC, 7-benzyloxy-4-trifluoromethylcoumarin]
metabolism by CYP1A2 (CYP1A2): metabolized to some extent by CYP1A2
metabolism by CYP3A (CYP3A): metabolized by CYP3A

SMILES: c1ccc(COc2ccc3cccnc3c2)cc1 [BQ, 7-benzyloxyquinoline]
metabolism by CYP1A2 (CYP1A2): metabolized to some extent by CYP1A2
metabolism by CYP3A (CYP3A): metabolized by CYP3A

SMILES: CCN(CC)c1ccc2c(-c3ccccc3C(=O)O)c3ccc(=[N+](CC)CC)cc-3oc2c1.[Cl-] [Rhodamine B]
fluorescence quantum yield (Φfl) of the reference [4]: 0.65

SMILES: CC(=O)N1CCN(c2ccc(OCC3COC(Cn4ccnc4)(c4ccc(Cl)cc4Cl)O3)cc2)CC1 (stereo not shown) [ketoconazole, reference compound]
effect of inhibitor on the fluorescence increase of Compound 29 in human liver microsomes ([3]; 10 μM ketoconazole pre-incubated 30 minutes): suppressed
